Values of other authors, collected in patent US12151031B2, “Topical copper tripeptide composition” (YUVAN RESEARCH, INC., priority 2018, dated 2024).

Settings: in vivo

Elimination half-life: 1.5 to 2 h
Substance: glycyl-histidyl-lysin tripeptide in the form of its Cu Complex [GHK-Cu]
